Legend:
Assay type in all cases: in vivo
[1] = tested on: Amaranthus retroflexus; experiment: Herbicidal activity, spray above weed before planting, azole-fungicide-treated stem cutting (Example 11); settings: sprayed above weed, 3 cm stem cutting treated with azaconazole, bitertanol or another listed azole-type fungicide planted one week after treatment, four weeks after treatment
Method: A soil is packed into a plastic pat, and seeds of Amaranthus retroflexus are seeded thereon. Thereafter, the pot is placed in a greenhouse, and the weed is grown.
A 30 cm to 40 cm stem cutting of sugar cane is placed on a wet soil, and germination is stimulated. The stem cutting from which a bud has grown to about 1 cm is selected, and the length of the stem cutting is adjusted to be 3 cm so that the stem cutting has one node.
(§1) The pot for a test is placed in a greenhouse.

[2] = tested on: Amaranthus retroflexus; experiment: Herbicidal activity, soil surface spray, azole-fungicide-treated stem cutting (Example 10); settings: 3 cm stem cutting treated with azaconazole, bitertanol or another listed azole-type fungicide, four weeks after treatment
Excerpt: A 30 to 40 cm stem cutting of sugar cane is placed on a wet soil, and germination is stimulated. The stem cutting from which a bud has grown to about 1 cm is selected, and the length of the stem cutting is adjusted to be 3 cm so that the stem cutting has one node. Azaconazole, bitertanol, bromoconazole, cyproconazole, difenoconazole, diniconazole, epoxyconazole, fenbuconazole, fluquinconazole, flusilazole, flutriafol, hexaconazole, imibenconazole, ipconazole, metconazole, myclobutanil, penconazole, propiconazole, prothioconazole, simeconazole, tebuconazole, tetraconazole, triadimenol, triticonazole, fenarimol, nuarimol, pyrifenox, imazalil, oxpoconazole fumarate, pefurazoate, procloraz or triflumizole is adhered to the stem cutting. A soil is packed into a plastic pot, and seeds of Amaranthus retroflexus are seeded thereon. The stem cutting of sugar cane treated with azaconazole, bitertanol, bromoconazole, cyproconazole, difenoconazole, diniconazole, epoxyconazole, fenbuconazole, fluquinconazole, flusilazole, flutriafol, hexaconazole, imibenconazole, ipconazole, metconazole, myclobutanil, penconazole, propiconazole, prothioconazole, simeconazole, tebuconazole, tetraconazole, triadimenol, triticonazole, fenarimol, nuarimol, pyrifenox, imazalil, oxpoconazole fumarate, pefurazoate, procloraz or triflumizole is planted in the soil packed into the pot at a depth of 2 cm. […] Thereafter, the pot for a test is placed in a greenhouse.

[3] = tested on: Amaranthus retroflexus; experiment: Herbicidal activity, soil surface spray, insecticide-treated stem cutting (Example 6); settings: 3 cm stem cutting treated with clothianidin, thiamethoxiam, imidacloprid, dinotefuran, nitenpyram, acetamiprid or thiacloprid, four weeks after treatment
Method: A 30 cm to 40 cm stem cutting of sugar cane is placed on a wet soil, and germination is stimulated. The stem cutting from which a bud has grown to about 1 cm is selected, and the length of the stem cutting is adjusted to be 3 cm so that the stem cutting has one node. Clothianidin, thiamethoxiam, imidacloprid, dinotefuran, nitenpyram, acetamiprid or thiacloprid is adhered to the stem cutting. A soil is packed into a plastic pot, and seeds of Amaranthus retroflexus are seeded thereon. The stem cutting of sugar cane treated with clothianidin, thiamethoxiam, imidacloprid, dinotefuran, nitenpyram, acetamiprid or thiacloprid is planted in the soil packed into the pot at a depth of 2 cm. […] Thereafter, the pot for a test is placed in a greenhouse.

[4] = tested on: Amaranthus retroflexus; experiment: Herbicidal activity, spray above weed before planting, metalaxyl-treated stem cutting (Example 13); settings: sprayed above weed, 3 cm stem cutting treated with metalaxyl or metalaxyl-M planted one week after treatment, four weeks after treatment
Method: A soil is packed into a plastic pot, and seeds of Amaranthus retroflexus are seeded thereon. Thereafter, a pot is placed in a greenhouse, and the weed is grown.
A 30 cm to 40 cm stem cutting of sugar cane is placed on a wet soil, and germination is stimulated. The stem cutting from which a bud has grown to about 1 cm is selected, and the length of the stem cutting is adjusted to be 3 cm so that the stem cutting has one node. Metalaxyl or metalaxyl-M is adhered to the stem cutting.
as §1

[5] = tested on: Amaranthus retroflexus; experiment: Herbicidal activity, soil surface spray, metalaxyl-treated stem cutting (Example 12); settings: 3 cm stem cutting treated with metalaxyl or metalaxyl-M, four weeks after treatment
Method: A soil is packed into a plastic pot. Seeds of Amaranthus retroflexus are seeded thereon.

[6] = tested on: Amaranthus retroflexus; experiment: Herbicidal activity, soil surface spray, strobilurin-treated stem cutting (Example 8); settings: 3 cm stem cutting treated with kresoxim-methyl, azoxystrobin or another listed strobilurin fungicide, four weeks after treatment
Excerpt: A 30 cm to 40 cm stem cutting of sugar cane is placed on a wet soil, and germination is stimulated. The stem cutting from which a bud has grown to about 1 cm is selected, and the length of the stem cutting is adjusted to be 3 cm so that the stem cutting has one node. Kresoxim-methyl, azoxystrobin, trifloxystrobin, fluoxastrobin, picoxystrobin, pyraclostrobin, dimoxystrobin, pyribencarb, metominostrobin, orysastrobin, enestrobin, pyraoxystrobin or pyrametostrobin is adhered to the stem cutting. A soil is packed into a plastic pot, and seeds of Amaranthus retroflexus are seeded thereon. The stem cutting of sugar cane treated with kresoxim-methyl, azoxystrobin, trifloxystrobin, fluoxastrobin, picoxystrobin, pyraclostrobin, dimoxystrobin, pyribencarb, metominostrobin, orysastrobin, enestrobin, pyraoxystrobin or pyrametostrobin is planted in the soil packed into the pot at a depth of 2 cm. […] Thereafter, the pot for a test is placed in a greenhouse.

[7] = tested on: Amaranthus retroflexus; experiment: Herbicidal activity, soil surface spray after planting (Example 4); settings: 3 cm stem cutting, one node, soil surface spray on date of planting, four weeks after treatment
Method: A 30 cm to 40 cm stem cutting of sugar cane is placed on a wet soil, and germination is stimulated. The stem cutting from which a bud has grown to about 1 cm is selected, and the length of the stem cutting is adjusted to be 3 cm so that the stem cutting has one node. A soil is packed into a plastic pot, and seeds of Amaranthus retroflexus are seeded thereon. The stem cutting of sugar cane is planted in the soil packed in the pot at a depth of 2 cm. […] Thereafter, the pot for a test is placed in a greenhouse.

[8] = tested on: Amaranthus retroflexus; experiment: Herbicidal activity, spray above weed one week before planting (Example 5); settings: sprayed above weed three weeks after seeding, 3 cm stem cutting planted one week after treatment, four weeks after treatment
Method: (§2) A soil is packed into a plastic pot, and seeds of Amaranthus retroflexus are seeded thereon. Thereafter, the pot is placed in a greenhouse, and the weed is grown.
A 30 cm to 40 cm stem cutting of sugar cane is placed on a wet soil, and germination is stimulated. The stem cutting from which a bud has been grown to about 1 cm is selected, and the length of the stem cutting is adjusted to be 3 cm so that the stem cutting has one node.
as §1

[9] = tested on: Amaranthus retroflexus; experiment: Herbicidal activity, spray above weed before planting, strobilurin-treated stem cutting (Example 9); settings: sprayed above weed, 3 cm stem cutting treated with kresoxim-methyl, azoxystrobin or another listed strobilurin fungicide planted one week after treatment, four weeks after treatment
Method: as §2
A 30 cm to 40 cm stem cutting of sugar cane is placed on a wet soil, and germination is stimulated. The stem cutting from which a bud has grown to about 1 cm is selected, and the length of the stem cutting is adjusted to be 3 cm so that the stem cutting has one node. Kresoxim-methyl, azoxystrobin, trifloxystrobin, fluoxastrobin, picoxystrobin, pyraclostrobin, dimoxystrobin, pyribencarb, metominostrobin, orysastrobin, enestrobin, pyraoxystrobin or pyrametostrobin is adhered to the stem cutting.
as §1

[10] = tested on: Amaranthus retroflexus; experiment: Herbicidal activity, spray above weed before planting, insecticide-treated stem cutting (Example 7); settings: sprayed above weed, 3 cm stem cutting treated with clothianidin, thiamethoxiam, imidacloprid, dinotefuran, nitenpyram, acetamiprid or thiacloprid planted one week after treatment, four weeks after treatment
Method: as §2
A 30 cm to 40 cm stem cutting of sugar cane is placed on a wet soil, and germination is stimulated. The stem cutting from which a bud has grown to about 1 cm is selected, and the length of the stem cutting is adjusted to be 3 cm so that the stem cutting has one node. Clothianidin, thiamethoxiam, imidacloprid, dinotefuran, nitenpyram, acetamiprid or thiacloprid is adhered to the stem cutting.
as §1

CS(=O)(=O)NC(=O)c1cc(Oc2ccc(C(F)(F)F)cc2Cl)ccc1[N+](=O)[O-] [fomesafen]
herbicidal activity against Amaranthus retroflexus [1]: the controlling effect on a weed can be confirmed
herbicidal activity against Amaranthus retroflexus [2]: the control effect on a weed can be confirmed
herbicidal activity against Amaranthus retroflexus [3]: the controlling effect on a weed can be confirmed
herbicidal activity against Amaranthus retroflexus [4]: the controlling effect on a weed can be confirmed
herbicidal activity against Amaranthus retroflexus [5]: the controlling effect on a weed can be confirmed
herbicidal activity against Amaranthus retroflexus [6]: the controlling effect on a weed can be confirmed
herbicidal activity against Amaranthus retroflexus [7]: the controlling effect on a weed can be confirmed
herbicidal activity against Amaranthus retroflexus [8]: the controlling effect on a weed can be confirmed
herbicidal activity against Amaranthus retroflexus [9]: the controlling effect on a weed can be confirmed
herbicidal activity against Amaranthus retroflexus [10]: the controlling effect on a weed can be confirmed

Reference: patent publication US20140329682A1, “METHOD OF CONTROLLING WEED IN A SUGAR CANE FIELD” (SUMITOMO CHEMICAL COMPANY, LIMITED, priority 2011, published 2014)
